Measurements: publication PMC6773697, “Antileukemic activity of novel adenosine derivatives” (Scientific Reports, 2019)

Legend:
Assay type in all cases: cell-based, human
γH2AX in MOLT-4 cells = assay: H2AX (phospho S139) In-Cell ELISA, MOLT-4; conditions: MOLT-4, 48 h, versus CLA
Description: The level H2AX protein phosphorylated Ser139 was measured in tested leukemia cells by using of In-Cell ELISA, ICE assay kit. The cells were seeded on 96-well plates (100 × 10^3/well) and 48 h later, incubated with the appropriate compounds. In some experimental variants, cells were preincubated for 1 h with VE-821 (10 µM). The cells were fixed by adding a final concentration of 4% paraformaldehyde solution (10 min, room temperature). After 2 h of Block Solution incubation, cells were treated with a highly specific antibody. A rabbit monoclonal antibody specific to H2AX (phospho S139) was used (at 1:100, 2 h incubation). Next Secondary Antibody Solution (at 1:1000) were added to the cells. The measurements were obtained on a fluorescence plate reader at an excitation wavelength of 680 nm and emission at 694 nm. The cells were PBS washed and 100 µL of Janus Green Stain was added to each well of the plate (5 min., room temperature). The data were collected at excitation wavelength of 750 nm and emission at 800 nm channel (Fluoroskan Cary Eclipse). Antibody signal intensity was normalized to the total amount using Janus Green cell-stain.

[1] = tested on: intracellular calcium in THP-1 cells; assay: Intracellular calcium assay (Fluo-4 NW), THP-1; conditions: THP-1, 2 h incubation
Description: Intracellular calcium levels were determined using the fluorescent probe Fluo-4 NW. The cells were plated in 96-well black plates (15 × 10^3 cells/well) and treated with cladribine and the new derivatives. Incubation with drugs was performed for different times (2–48 h). The medium was then removed, and the cells were washed with phosphate buffered saline (PBS)[35],[36]. Finally, a dye loading solution (Fluo-4 NW dye, probenecid, assay buffer—1xHBSS, 20 mM HEPES; 100 μL per well) was processed according to the Fluo-4 NW Calcium Assay Kit protocol (Molecular Probes) and incubated for 30 min in the dark at 37 °C, and then for another 30 min at the room temperature. The measurements were calculated on a fluorescence plate reader for excitation at 494 nm and emission at 516 nm. To avoid errors in the measurement of fluorescence intensity, caused by feasible cell detachment and resulting decrease in the cell number in the samples due to the drug treatment, DNA content was estimated as well.[37] After the measurement of intracellular calcium fluorescence, the probes were centrifuged at 300xg, 10 min. […] Then 100 μl of 5 μM of propidium iodide (PI) was added, the plate was immediately shaken, incubated for 15 min at room temperature in the dark and the fluorescence was read at 350/620 nm with a Fluoroskan Ascent FL microplate reader (Labsystems, Sweden).

HL-60 cells = assay: Comet assay with proteinase K post-treatment (DNA-protein cross-links), HL-60; conditions: for DNA damage after proteinase K: HL-60, 24 h
Description: Single cell gel electrophoresis (comet assay) was used to detect alkali labile sites, single and double DNA strand breaks, and cross-links induced by genotoxic agents. After electrophoresis and gel staining with 4,6-diamidino-2-phenylindole (DAPI), the released DNA was visible under a fluorescence microscope as a characteristic comet tail. The cells were plated on 24-well plates (20,000 cells/mL) and treated with CLA, CLA-FMOR, CLA-FPIP, or CLA-FPIR at the indicated concentrations for 2, 24, and 48 h at 37 °C. Some cells were preincubated with an ATR kinase inhibitor (VE-821) for 1 h at 37 °C before adding the tested compounds. Next, cells were collected into Eppendorf tubes and rinsed with PBS. Then, cells were suspended in 0.75% low melting point (LMP) agarose dissolved in PBS (pH 7.4) and placed on microscope slides precoated with 0.5% normal melting point (NMP) agarose. Subsequently, the slides were treated with a cooled lysis buffer (2.5 M NaCl, 100 mM EDTA, 10 mM Tris, 1% Triton X-100, pH 9.0) for 1–24 h at 4 °C. Then, slides were placed in developing buffer (300 mM NaOH, 1 mM EDTA) for 20 min. Electrophoresis was performed in […] (30 mM NaOH, 1 mM EDTA) at 29 V and 30 mA for 20 min. The samples were stained with DAPI ([…]). The slides were stored in a wet chamber at 4 °C and analyzed under a fluorescence microscope. Fifty randomly selected cells from each slide were measured using image analysis (Nikon, Japan) attached to a COHU 4910 video camera, which was equipped with a UV-1 filter block consisting of an excitation filter (359 nm) and a barrier filter (461 nm) connected to the image analysis system Lucia-Comet v. 4.51 (Czech Republic)[41]. In the samples preincubated with VE-821, the level of DNA damage associated with the ATR kinase was determined.
Because cross-links can be undetectable in the alkaline comet assay, a variant of this method including post-treatment with proteinase K (Cat no: P2308) was used. Proteinase K digests peptide bonds, releasing the cross-linked DNA […] the DNA-protein complexes without altering the structure of the DNA-DNA complexes to distinguish them. After lysis, the slides were washed three times in TE buffer (10 mM Tris, pH 10, 1 mM EDTA). The cells were treated with aliquots of proteinase K (60 µL per slide; 1 mg/mL TE buffer) for 1 h at 37 °C in a wet chamber. Further steps of the comet assay were performed as described above.

OC[C@H]1O[C@@H](n2cnc3c(N=CN4CCCC4)nc(Cl)nc32)C[C@@H]1O [CLA-FPIR, [6-deamino-6-(N′, N′-l′, 4′-tetramethyleneformamidino)] cladribine]
effectiveness in inducing dsDNA (γH2AX) relative to CLA (γH2AX in MOLT-4 cells): about 2 fold | intracellular calcium ion concentration [1]: highest intracellular calcium ion concentration | DNA damage after proteinase K (HL-60 cells): increased the DNA damage

OC[C@H]1O[C@@H](n2cnc3c(N=CN4CCOCC4)nc(Cl)nc32)C[C@@H]1O [CLA-FMOR, [6-deamino-6-(N′, N′-3′-oxa-1′, 5′-pentamethyleneformamidine)] cladribine]
effectiveness in inducing dsDNA (γH2AX) relative to CLA (γH2AX in MOLT-4 cells): about 2 fold | intracellular calcium ion concentration [1]: highest intracellular calcium ion concentration | DNA damage after proteinase K (HL-60 cells): increased the DNA damage | DNA-protein cross-links after proteinase K (HL-60 cells; HL-60, starting at 2 h of incubation): increased the level of cross-links
